Assay results: patent US8741859B2, “Fungicide composition for agriculture and horticulture and method for preventing plant diseases” (Ishihara Sangyo Kaisha, Ltd, priority 2008, dated 2014)

What was measured:
Pythium graminicola = experiment: Inhibition test of mycelial growth against turf Pythium blight (Pythium graminicola); type: cell-based
Procedure: (§1) The strain to use for a test was precultured on a PSA plate for two days at 20° C. Then, the peripheral portion of the grown mycelia was cut out with a cork borer (4 mm in diameter) to put on PDA plate which was prepared to contain an active ingredient at a predetermined concentration by diluting. After culturing for two days at 20° C., a diameter of the mycelial colony was measured to obtain an inhibition rate of mycelial growth.
(§2) In addition, a theoretical value of the inhibition rate was calculated using Colby's formula and listed in parentheses of Table 1.
Inhibition Test of Mycelial Growth Against Turf Pythium Blight (Pythium graminicola)
The inhibition rate of mycelial growth was obtained by measuring mycelial growth in the same manner as Test Example 1. In addition, the mean mycelial growth of non-treated group was 46.5 mm.

Pythium spinosum = experiment: Inhibition test of mycelial growth against rice seedling blight (Pythium spinosum); type: cell-based; conditions: Globisporangium spinosum, 48 h, PDA plate, 2 days, 20° C., read-out: Inhibition Rate of Mycelial Growth against Pythium spinosum (%)
Procedure: Inhibition Test of Mycelial Growth Against Rice Seedling Blight (Pythium spinosum)
as §1, §2

## Cc1ccc(-c2c(Cl)nc(C#N)n2S(=O)(=O)N(C)C)cc1 [Cyazofamid, 4-chloro-2-cyano-1-dimethylsulfamoyl-5-(4-methylphenyl)imidazole]
Pythium graminicola; Cyazofamid 1 ppm alone (agent 0 ppm)
  Inhibition Rate of Mycelial Growth (%): 48%
Pythium graminicola; Cyazofamid 10 ppm alone (agent 0 ppm)
  Inhibition Rate of Mycelial Growth (%): 47%
Pythium graminicola; Cyazofamid 100 ppm alone (agent 0 ppm)
  Inhibition Rate of Mycelial Growth (%): 68%
Pythium spinosum; Cyazofamid 1.0 ppm alone (polyoxin 0 ppm)
  inhibition at 1 ppm: 68%
Pythium spinosum; Cyazofamid 10.0 ppm alone (polyoxin 0 ppm)
  inhibition at 10 ppm: 54%
